Several values for one entry are separate records, joined by “and”; a condition that tells them apart may be missing. Identical values can stand only once. Inconclusive results and toxic doses are left out. The calls were made as follows: active = survival T/C of 150% or more; inactive = T/C below 125% in these data.
Tested on: BDF1 mice, B16 melanoma ip, median survival T/C
Experiment: NCI In Vivo Anticancer Drug Screen. Data for tumor model B16 Melanoma (intraperitoneal) in B6D2F1 (BDF1) mice
Settings: endpoint: median survival time, higher = longer survival
Procedure, shortened: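 Vehicle-treated animals serve as the reference (C); treated animals (T) are scored for survival or tumor size after tumor transplantation.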

[1] = dose: 100.0 mg/kg/injection, schedule: Q01DX009 (ip), vehicle: saline with Tween-80
[2] = dose: 200.0 mg/kg/injection, schedule: Q01DX009 (ip), vehicle: saline with Tween-80
[3] = dose: 12.5 mg/kg/injection, schedule: Q01DX009 (ip), vehicle: saline with Tween-80
[4] = dose: 25.0 mg/kg/injection, schedule: Q01DX009 (ip), vehicle: saline with Tween-80
[5] = dose: 50.0 mg/kg/injection, schedule: Q01DX009 (ip), vehicle: saline with Tween-80
[6] = dose: 50.0 mg/kg/injection, schedule: Q04DX003 (ip), vehicle: saline with Tween-80
[7] = dose: 1.5 mg/kg/injection, schedule: Q01DX009 (ip), vehicle: saline
[8] = dose: 100.0 mg/kg/injection, schedule: Q04DX003 (ip), vehicle: Klucel (hydroxypropylcellulose) (HPC)
[9] = dose: 200.0 mg/kg/injection, schedule: Q04DX003 (ip), vehicle: Klucel (hydroxypropylcellulose) (HPC)
[10] = dose: 12.5 mg/kg/injection, schedule: Q01DX009 (ip), vehicle: Klucel (hydroxypropylcellulose) (HPC)
[11] = dose: 6.25 mg/kg/injection, schedule: Q01DX009 (ip), vehicle: saline with Tween-80
[12] = dose: 100.0 mg/kg/injection, schedule: Q04DX003 (ip), vehicle: saline with Tween-80
[13] = dose: 200.0 mg/kg/injection, schedule: Q04DX003 (ip), vehicle: saline with Tween-80
[14] = dose: 100.0 mg/kg/injection, schedule: Q01DX009 (ip), vehicle: Klucel (hydroxypropylcellulose) (HPC)
[15] = dose: 50.0 mg/kg/injection, schedule: Q01DX009 (ip), vehicle: Klucel (hydroxypropylcellulose) (HPC)
[16] = dose: 400.0 mg/kg/injection, schedule: Q01DX009 (ip), vehicle: saline with Tween-80

Measured: T/C

CCCCCCCC(N)=O
inactive: [1] 100 % of control | [2] 106 % of control

COC1CCC2=C(C1)C(=O)CC1c3ccccc3CN21 (stereo not drawn)
inactive: [3] 86 % of control | dose: 12.5 mg/kg/injection, schedule: Q04DX003 (ip), vehicle: saline with Tween-80 92 % of control | [4] 93 % of control | dose: 25.0 mg/kg/injection, schedule: Q04DX003 (ip), vehicle: saline with Tween-80 105 % of control | [5] 93 % of control | [6] 97 % of control

CCC[CH2][Pb]([CH2]CCC)([CH2]CCC)[O]C(=O)CCl
inactive: dose: 1.56 mg/kg/injection, schedule: Q01DX009 (ip), vehicle: Klucel (hydroxypropylcellulose) (HPC) 90 % of control

[Cl][Pt+2][Cl].[NH-]C1CCC1.[NH2-]
active: [7] 176 % of control | dose: 3.0 mg/kg/injection, schedule: Q01DX009 (ip), vehicle: saline 162 % of control

O=C(CC(O)(C(F)(F)F)C(F)(F)F)c1cccc2ccccc12
inactive: [8] 90 % of control | [9] 95 % of control | dose: 400.0 mg/kg/injection, schedule: Q04DX003 (ip), vehicle: Klucel (hydroxypropylcellulose) (HPC) 102 % of control

O=S(c1ccccc1)c1c(Cl)c(Cl)nc(Cl)c1Cl (stereo not drawn)
inactive: dose: 6.25 mg/kg/injection, schedule: Q01DX009 (ip), vehicle: Klucel (hydroxypropylcellulose) (HPC) 94 % of control | [10] 100 % of control

CCN(CC)CC#N
inactive: dose: 1.0 mg/kg/injection, schedule: Q01DX009 (ip), vehicle: saline 94 % of control | dose: 2.0 mg/kg/injection, schedule: Q01DX009 (ip), vehicle: saline 105 % of control | dose: 4.0 mg/kg/injection, schedule: Q01DX009 (ip), vehicle: saline 104 % of control

C1CC[N-]CC1.C1CC[N-]CC1.CS(C)=O.[Cl][Rh]([Cl])[Cl]
inactive: dose: 5.0 mg/kg/injection, schedule: Q01DX009 (ip), vehicle: saline with Tween-80 99 % of control | dose: 10.0 mg/kg/injection, schedule: Q01DX009 (ip), vehicle: saline with Tween-80 95 % of control

Cc1ncc(CNC(=O)N(CCCl)N=O)c(N)n1
active: dose: 1.56 mg/kg/injection, schedule: Q01DX009 (ip), vehicle: suspension in saline 155 % of control | dose: 3.12 mg/kg/injection, schedule: Q01DX009 (ip), vehicle: suspension in saline 193 % of control | dose: 6.25 mg/kg/injection, schedule: Q01DX009 (ip), vehicle: suspension in saline 279 % of control | [10] 164 % of control | dose: 12.5 mg/kg/injection, schedule: Q01DX009 (ip), vehicle: suspension in saline 322 % of control

CCOC(=O)N1c2ccccc2C=CC1OCC (stereo not drawn)
inactive: dose: 6.25 mg/kg/injection, schedule: Q04DX003 (ip), vehicle: Klucel (hydroxypropylcellulose) (HPC) 105 % of control | dose: 12.5 mg/kg/injection, schedule: Q04DX003 (ip), vehicle: Klucel (hydroxypropylcellulose) (HPC) 105 % of control | dose: 25.0 mg/kg/injection, schedule: Q04DX003 (ip), vehicle: Klucel (hydroxypropylcellulose) (HPC) 89 % of control and 105 % of control

NC1CC[N-]CC1.NC1CC[N-]CC1.NC1CC[N-]CC1.NC1CC[N-]CC1.[Cl][Rh][Cl]
inactive: [11] 103 % of control | [3] 101 % of control | [4] 93 % of control

CC1CC[N-]CC1.CC1CC[N-]CC1.CC1CC[N-]CC1.CC1CC[N-]CC1.CS(C)=O.CS(C)=O.[Cl-].[Cl-].[Cl-].[Cl-].[Pt+4].[Rh+3]
inactive: dose: 0.2 mg/kg/injection, schedule: Q01DX009 (ip), vehicle: water 100 % of control | dose: 0.4 mg/kg/injection, schedule: Q01DX009 (ip), vehicle: water 104 % of control | dose: 0.8 mg/kg/injection, schedule: Q01DX009 (ip), vehicle: water 106 % of control | dose: 1.5 mg/kg/injection, schedule: Q01DX009 (ip), vehicle: water 106 % of control | dose: 3.0 mg/kg/injection, schedule: Q01DX009 (ip), vehicle: water 106 % of control

CCCCCCCCCCCC(c1ccccc1)[N+](C)(C)C (stereo not drawn)
inactive: dose: 1.0 mg/kg/injection, schedule: Q01DX009 (ip), vehicle: saline sonified 105 % of control | dose: 2.0 mg/kg/injection, schedule: Q01DX009 (ip), vehicle: saline sonified 110 % of control | dose: 4.0 mg/kg/injection, schedule: Q01DX009 (ip), vehicle: saline sonified 105 % of control | dose: 8.0 mg/kg/injection, schedule: Q01DX009 (ip), vehicle: saline sonified 100 % of control

c1ccc(-c2nc(N3CCOCC3)nc3ccccc23)cc1
inactive: [12] 104 % of control | [13] 88 % of control

CCCCCCCCCCCCSC(=O)CCC(=O)O
inactive: dose: 50.0 mg/kg/injection, schedule: Q04DX003 (ip), vehicle: Klucel (hydroxypropylcellulose) (HPC) 108 % of control | [8] 108 % of control | [9] 102 % of control

O=Cc1ccc([N+](=O)[O-])s1
inactive: dose: 3.12 mg/kg/injection, schedule: Q01DX009 (ip), vehicle: saline with Tween-80 99 % of control | [11] 96 % of control | [3] 96 % of control | [4] 86 % of control

CNC(Cc1ccccc1)c1ccc(OC)c(OC)c1 (stereo not drawn)
inactive: [14] 100 % of control | dose: 200.0 mg/kg/injection, schedule: Q01DX009 (ip), vehicle: Klucel (hydroxypropylcellulose) (HPC) 100 % of control | dose: 400.0 mg/kg/injection, schedule: Q01DX009 (ip), vehicle: Klucel (hydroxypropylcellulose) (HPC) 103 % of control

CCCCCCOP(=O)(CCCCCC)OCCCCCC
inactive: [10] 91 % of control | [15] 94 % of control | [14] 97 % of control

CCCCN(C)N=Nc1c(C(N)=O)n[nH]c1C
inactive: [3] 110 % of control | [4] 105 % of control | [5] 122 % of control | [6] 100 % of control | [12] 105 % of control | [13] 113 % of control

CCSc1ccc2c(cc1=O)[C@@H](NC1OC(CO)C(O)C(O)C1O)CCc1cc(OC)c(OC)c(OC)c1-2 (stereo partly drawn)
inactive: dose: 50.0 mg/kg/injection, schedule: Q01DX009 (ip), vehicle: other 101 % of control | dose: 100.0 mg/kg/injection, schedule: Q01DX009 (ip), vehicle: other 109 % of control

Clc1ccc(NC2=NCCCS2)c2ccccc12
inactive: dose: 25.0 mg/kg/injection, schedule: Q01DX009 (ip), vehicle: Klucel (hydroxypropylcellulose) (HPC) 105 % of control | [15] 92 % of control | [14] 95 % of control

Cc1cc(=O)[nH]c(N/N=C/c2ccc(N(C)C)cc2)n1
inactive: [1] 100 % of control | [2] 95 % of control | [16] 97 % of control

CCCCCCCCCCCCCC(=O)OC12CC(C)C3(O)C(C=C(CO)C(O)C4(O)C(=O)C(C)=CC43)C1C2(C)C (stereo not drawn)
inactive: dose: 0.01 mg/kg/injection, schedule: Q01DX009 (ip), vehicle: saline + alcohol 99 % of control | dose: 0.03 mg/kg/injection, schedule: Q01DX009 (ip), vehicle: saline + alcohol 107 % of control | dose: 0.06 mg/kg/injection, schedule: Q01DX009 (ip), vehicle: saline + alcohol 104 % of control | dose: 0.12 mg/kg/injection, schedule: Q01DX009 (ip), vehicle: saline + alcohol 94 % of control | dose: 0.13 mg/kg/injection, schedule: Q01DX009 (ip), vehicle: saline + alcohol 100 % of control

C=CCN1C(=O)C=CC1=O
inactive: dose: 0.75 mg/kg/injection, schedule: Q01DX009 (ip), vehicle: saline 102 % of control | [7] 93 % of control

CCOC(=O)NC(C)(C)CC(C)(C)C
inactive: [14] 106 % of control

O=C1C(Cl)=C(N2CC2)C(=O)C(Cl)=C1N1CC1
inactive: dose: 0.62 mg/kg/injection, schedule: Q01DX009 (ip), vehicle: Klucel (hydroxypropylcellulose) (HPC) 105 % of control | dose: 1.25 mg/kg/injection, schedule: Q01DX009 (ip), vehicle: Klucel (hydroxypropylcellulose) (HPC) 105 % of control | dose: 2.5 mg/kg/injection, schedule: Q01DX009 (ip), vehicle: Klucel (hydroxypropylcellulose) (HPC) 114 % of control | dose: 2.5 mg/kg/injection, schedule: Q01DX009 (ip), vehicle: saline 115 % of control | dose: 5.0 mg/kg/injection, schedule: Q01DX009 (ip), vehicle: Klucel (hydroxypropylcellulose) (HPC) 123 % of control | dose: 10.0 mg/kg/injection, schedule: Q01DX009 (ip), vehicle: Klucel (hydroxypropylcellulose) (HPC) 124 % of control | dose: 20.0 mg/kg/injection, schedule: Q01DX009 (ip), vehicle: Klucel (hydroxypropylcellulose) (HPC) 124 % of control

CC(C)COC(=O)c1ccc(NC(=O)Nc2ccccc2)cc1
inactive: [1] 93 % of control | [2] 102 % of control | [16] 97 % of control

— PubChem BioAssay AID192 (DTP/NCI, 2004)
